Laboratory results taken from patent US12391701B2, “Chromene-based compounds, methods and uses thereof” (University of Minho, priority 2019, dated 2025).
Values after ≈ are worked out from the molar mass of the structure shown.

Columns and labels:
[1] = Highest soluble concentration in C. elegans assay; assay type: physicochemical; details: C. elegans liquid culture medium (S-medium) with 1% DMSO, 20 °C, aqueous buffer, kinetic from dmso stock, read-out: highest soluble concentration possible
Method: The compounds were tested at several concentrations, up to the highest soluble concentration possible −150 μM (MC369, 75 μM) (FIG. 12). […] The rate of food consumption between days 3-5 was used as an indication for worm development, health and fertility and compared to 1% DMSO, (vehicle, not toxic).
In an embodiment, Bristol strain N2 (provided by the CGC, funded by the NIH Office of Research Infrastructure Programs—P40 OD010440) was used to test each compound's toxicity based on a food clearance assay using C. elegans. The assay was performed on 96-well plates in liquid culture (Voisine et al. 2007; Teixeira-Castro et al. 2015). Each well, with a final volume of 60 μL, comprised the following: approximately 20 worms in egg stage, OP50 bacteria to a final OD of 0.6-0.8 (595 nm) and each compound at the appropriate concentration. The worms were grown with continuous shaking at 180 rpm/20° C. (Shel lab Si series incubator) for 7 days and the absorbance (OD595) was measured daily on a microplate reader (Tecan Infinite M200). The effect of the compounds on C. elegans physiology was monitored by the rate at which the E. coli food suspension was consumed (FIG. 14). Age-synchronized worm eggs were obtained by “egg prep” as follows: adult worms were treated with an alkaline hypochlorite solution (20% bleach, 25% 1M NaOH) for 6 minutes, thereafter centrifuged and washed in M9 buffer twice. […]

[2] = test system: C57BI/6 mice; assay: Toxicity in C57BI/6 mice, 2nd trial; assay type: in vivo; details: 3 mg/Kg i.p. daily for 7 days
Method: In an embodiment, the effects of compound treatment on C57BI/6 mice—2nd trial was analysed. […] FIG. 16A is a schematic representation of the experiment timeline. 3-month old female and male animals were used (n=6/group/gender) and injected either with MC408 3 mg/Kg or vehicle (saline, Tween80 and methylcellulose) (i.p.) daily for 7 days. In this trial the number of animals per group was increased and the experiment was conceived to collect blood before and after the treatment. […] Data is presented as mean±SE.

[3] = test system: C57BI/6 mice; assay: Toxicity in C57BI/6 mice, 1st trial; assay type: in vivo
Method: In an embodiment, the safety profiles of the compounds were evaluated in rodents. […] FIG. 13A is a schematic representation of the experiment timeline. 5-month old female and male animals were used (n=3/group/gender) and injected either with MC408 3 mg/Kg or vehicle (saline, Tween80 and methylcellulose) (i.p.) daily for 7 days. A battery of welfare tests was performed daily. […] The activity was measured in a viewing jar and the number of vertical movements were counted for 5 minutes. […] The activity was recorded in an open arena labelled with squares and the number of squares were counted while the animals were freely exploring for 1 minute. […] In FIGS. 13G and H, water and food intake were analysed respectively. Each day, […] of food and 200 mL of water were placed in each cage. […] Data is presented as mean±SE.
In an embodiment, C57/BI6 female and male mice (n=3/group/gender) were intraperitoneally injected with MC408 (3 mg/Kg) or vehicle (saline, Tween80 and methylcellulose) daily, for 7 days to determine toxicity of the compounds in mice model. A battery of tests to assess mice welfare were performed daily. Immediately after the first drug administration, animals were videotaped and the immediate effects of MC408 were recorded. The number of vertical movements and the immobility time were recorded. Water and food intake were evaluated during the 7 days of the experiment, by adding a fixed amount of food and water in the animal's home cage in the 1st day and measuring the remaining amount at day 7. Body weight was assessed every day in a dynamic mouse scale. Horizontal and vertical activity was analysed to evaluate animals' intrinsic exploratory behavior; these were measured in an open arena with labelled squares for 1 minute and in a viewing jar for 5 minutes, respectively. Furthermore, the number of bolus faecalis were also counted while animals were performing the daily behavior assessment protocols, as a measure of anxiety. A battery of tests more related to animal welfare was applied by the experimenter, including measurements of: (i) body position and curvature; (ii) spontaneous activity; (iii) respiratory rate; (iv) eyelid opening and reflexes; (v) skin picking to analyse dehydration; (vi) grooming; (vii) fur erection; (viii) tremors; (ix) limb clasping and (x) reaction to transfer. At day 7, the animals were euthanized. All animals were deeply anesthetized (ketamine hydrochloride (150 mg/kg) and medetomidine (0.3 mg/kg)) and transcardially perfused with a saline solution (NaCl 0.9% (wt/v)). Blood was collected from the cava vein, centrifuged for 10 minutes at 13.000 rpm and the plasma was transferred to a new tube and stored at −80° C. until further processing for enzymatic liver function measurements using standard techniques. The organs (kidney, intestine, stomach, brain, liver, ovary/testis) were harvested and placed in tubes containing 4% paraformaldehyde and further processed for paraffin embedding and pathology analysis.

Row | SMILES | solubility [1] | body weight [2] | exploratory activities (vertical and horizontal) ([3]; 3 mg/Kg i.p. daily for 7 days) | number of bolus faecalis (indirect measure of anxiety) ([3]; 3 mg/Kg i.p. daily for 7 days) | body weight ([3]; 3 mg/Kg i.p. daily for 7 days, 1st trial) | water and food intake ([3]; 3 mg/Kg i.p. daily, measured at day 7) | battery of welfare tests ([3]; 3 mg/Kg i.p. daily, vs vehicle) | immobility time and vertical movement (REARS) immediately after first injection ([3]; 3 mg/Kg i.p., 10 min, vs vehicle) | serum AST and ALT (enzymatic liver function) ([3]; day 7, females and males, vs vehicle)
1 | COc1cccc2c1Oc1nc(-c3ccccc3F)[nH]c1C2C1c2cccc(OC)c2Oc2nc(-c3ccccc3F)[nH]c21 (stereo not drawn) [MC369, 2,2′-bis(2-fluorophenyl)-5,5′-dimethoxy-1,1,9,9′-tetrahydro-9,9′-bichromeno[2,3-]imidazoles] | 75 µM (≈ 44.3 µg/mL) | – | – | – | – | – | – | – | –
2 | COc1cccc2c1Oc1nc(-c3ccc(Br)cc3)[nH]c1C2 [MC408, 2-(4-bromophenyl)-5-methoxy-3,9-dihydrochromeno[2,3-d]imidazoles] | – | no differences were found | No differences were found | no differences were observed | no differences were found | no differences were found | no impact | No differences were found | No statistical differences
